Common to all, as to format: biochemical
In assay [1] the target is T1, human recombinant FAAH (Homo sapiens, UniProt O00519).
T1 construct: purchased Cayman 10010183
T1 sequence (O00519 1-579): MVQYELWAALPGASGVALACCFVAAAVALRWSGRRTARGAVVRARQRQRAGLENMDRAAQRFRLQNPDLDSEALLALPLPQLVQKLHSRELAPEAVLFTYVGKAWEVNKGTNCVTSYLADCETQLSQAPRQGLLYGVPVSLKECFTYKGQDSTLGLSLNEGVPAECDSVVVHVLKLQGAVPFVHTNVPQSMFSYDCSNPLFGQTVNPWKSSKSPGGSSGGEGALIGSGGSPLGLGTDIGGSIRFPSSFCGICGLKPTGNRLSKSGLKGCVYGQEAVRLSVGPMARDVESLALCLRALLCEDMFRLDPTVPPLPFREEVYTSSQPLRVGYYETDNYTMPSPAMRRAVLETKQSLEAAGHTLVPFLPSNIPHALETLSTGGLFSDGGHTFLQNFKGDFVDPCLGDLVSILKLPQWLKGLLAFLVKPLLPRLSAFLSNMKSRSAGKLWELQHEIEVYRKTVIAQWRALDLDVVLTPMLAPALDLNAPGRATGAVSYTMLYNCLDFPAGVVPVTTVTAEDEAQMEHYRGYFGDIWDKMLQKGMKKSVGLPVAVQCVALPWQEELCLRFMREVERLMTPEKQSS
Put plainly: FAAH inhibition enzymatic assay, fluorescent substrate Arachidonoyl-AMC, 30 minute incubation. Particulars: T = 30 min (30 minute incubation); geometric mean of 2-4 determinations unless otherwise indicated.

The target of assay [2] is T2, human recombinant Monoacylglycerol Lipase (Homo sapiens, UniProt Q99685).
T2 sequence (Q99685 1-303): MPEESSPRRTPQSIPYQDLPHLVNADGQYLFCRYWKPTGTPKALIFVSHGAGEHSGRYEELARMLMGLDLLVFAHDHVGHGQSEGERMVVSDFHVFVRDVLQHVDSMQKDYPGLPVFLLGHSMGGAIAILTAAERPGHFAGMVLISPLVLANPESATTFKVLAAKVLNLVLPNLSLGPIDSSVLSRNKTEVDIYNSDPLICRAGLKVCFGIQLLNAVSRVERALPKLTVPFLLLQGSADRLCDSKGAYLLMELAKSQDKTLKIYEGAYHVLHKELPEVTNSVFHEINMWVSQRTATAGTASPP
In words: MAGL inactivation, enzyme progress curves, kinact/KI. Particulars: from enzyme progress curves, T = 0 min protocol; geometric mean of 2-4 determinations unless otherwise indicated. The essentials: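 Human recombinant MAGL ([…]) with compound, 7-HCA substrate (final 5 μM) added immediately (T=0 min), in pH 7.4 HEPES buffer with 0.1% Triton X-100 and 25% glycerin. Fluorescence (Ex/Em 340/465) was read every minute over 60 min, giving progress curves at decreasing compound concentrations (final 3 μM to 0.03 nM).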

Assay [3] has as its target T2, human recombinant Monoacylglycerol Lipase. Put plainly: MAGL inhibition enzymatic assay, fluorogenic substrate 7-HCA, IC50 at T=0 min or after 30 minute incubation (T=30 min). Particulars: geometric mean of 2-4 determinations unless otherwise indicated. Here is the method: An equal volume of 7-HCA in assay buffer with 10% DMSO was added either immediately (T=0 min) or after a 30 minute incubation (T=30 min) to initiate the reaction. […] After these dilutions, the final concentration of the test compound ranged from 3 μM to 0.03 nM. […] IC50 values were generated based on a four parameter fit model using ABASE software from IDBS.

Setting [4] is: T = 0 min (substrate added immediately), read-out: MAGL (T = 0 min) IC50.
Setting [5] is: T = 30 min (30 minute incubation), read-out: MAGL (T = 30 min) IC50.

Read-outs that look alike come from different tables or passages of the source.

One may read the IC50 as the concentration needed to halve the response being measured.

In the case of `O=C(O[C@H](CO)C(F)(F)F)N1CCC2(CC1)CC(c1cccc(Cl)c1)CO2` (mixture of isomers) [Example 119], the values for the IC50 in assay [1], in assay [3] (setting [4]) and in assay [3] (setting [5]) were 3570 nM, 32 nM and 3 nM, respectively. The “MAGL kinact/KI” value in assay [2] is recorded as 23176 1/s per M.
The matching figures for `CN(C(=O)c1ccccc1)C1COC2(CCN(C(=O)O[C@H](CO)C(F)(F)F)CC2)C1` (single isomer, unassigned) [Example 100]: more than 28700 nM, 86 nM, 10 nM and 5664 1/s per M.
The like results for `C#Cc1ccc(S(=O)(=O)N2CCOC3(CCN(C(=O)O[C@H](CO)C(F)(F)F)CC3)C2)cc1` [Example 68] were, in that order, more than 30000 nM, 56 nM, 6 nM and 16586 1/s per M.
For `O=C(O[C@H](CO)C(F)(F)F)N1CCC2(CC1)CCN(C(=O)c1ccccc1)C2` [Example 126], the figures for the concentration for half-maximal inhibition (IC50) in assay [1], in assay [3] (setting [4]) and in assay [3] (setting [5]) were more than 30000 nM, 112 nM and 12 nM, respectively. Besides, in assay [2], the “MAGL kinact/KI” value was 3723 1/s per M.
The like results for `C#Cc1cccc(S(=O)(=O)N2CCOC3(CCN(C(=O)O[C@H](CO)C(F)(F)F)CC3)C2)c1` [Example 79] were, in that order, 10000 nM, 7 nM, 1 nM and 26513 1/s per M.
Consider `CC(C)CS(=O)(=O)N(C)[C@H]1COC2(CCN(C(=O)O[C@H](CO)C(F)(F)F)CC2)C1` [Example 139], for which the values for the IC50 in assay [1], in assay [3] (setting [4]) and in assay [3] (setting [5]) were more than 30000 nM, 153 nM and 15 nM, respectively. The “MAGL kinact/KI” value in assay [2] is reported as 3058 1/s per M.
For the compound `CC(C)CC(=O)N(C)[C@H]1COC2(CCN(C(=O)O[C@H](CO)C(F)(F)F)CC2)C1` [Example 144], the figures for the IC50 in assay [1], in assay [3] (setting [4]) and in assay [3] (setting [5]) were more than 30000 nM, 105 nM and 10 nM, respectively. The “MAGL kinact/KI” value in assay [2] is 2802 1/s per M.
The like results for `O=C(O[C@H](CO)C(F)(F)F)N1CCC(Oc2ncc(C(F)(F)F)cc2Cl)CC1` [Example 63] were, in that order, 3010 nM, 7 nM, 1 nM and 7347 1/s per M.
`Cc1ccc(S(=O)(=O)N2CCOC3(CCN(C(=O)O[C@H](CO)C(F)(F)F)CC3)C2)cc1F` [Example 73]: the results for the half-maximal inhibitory concentration (IC50) in assay [1], in assay [3] (setting [4]) and in assay [3] (setting [5]) were more than 30000 nM, 5 nM and 1 nM, respectively. In addition, in assay [2], the “MAGL kinact/KI” value is 96515 1/s per M.
`O=C(O[C@@H]([C@@H](O)C(F)(F)F)C(F)(F)F)N1C[C@@H]2[C@H](C1)[C@H]2c1ccn(-c2ccc(F)cc2)n1` (racemic) [Example 36]: the IC50 in assay [1] came out at 13200 nM; in assay [3] (setting [4]), 132 nM; in assay [3] (setting [5]), 12 nM. In addition, in assay [2], the “MAGL kinact/KI” value is reported as 3736 1/s per M.
`O=C(O)C(F)(F)F.O=C(O[C@H](CO)C(F)(F)F)N1CCC2(CC1)CC(c1ccc(F)cn1)CO2` (mixture of isomers) [Example 97, (2R)-1,1,1-Trifluoro-3-hydroxypropan-2-yl 3-(5-fluoropyridin-2-yl)-1-oxa-8-azaspiro[4.5]decane-8-carboxylate, trifluoroacetate salt]: the IC50 in assay [1] was more than 30000 nM; in assay [3] (setting [4]) it was 192 nM; in assay [3] (setting [5]), 20 nM. Besides, the “MAGL kinact/KI” value in assay [2] is listed as 1897 1/s per M.

These data come from patent US10723711B2, “1,1,1-trifluoro-3-hydroxypropan-2-yl carbamate derivatives and 1,1,1-trifluoro-4-hydroxybutan-2-yl carbamate derivatives as MAGL inhibitors” (PFIZER INC., priority 2015, dated 2020).
